Read-outs that look alike come from different tables or passages of the source.
How the values were obtained:
Assay type in all cases: cell-based
[1] = target: T1, SLC23A1 (Homo sapiens, UniProt Q9UHI7); assay: RESOLUTE assay on SLC23A1
T1 construct: expressed in transfected cells; host or cells: Jump In T-REx HEK293 (general cell-line paragraph)
Description: FLIPR Membrane Potential Blue Dye was used to detect the compound activities for those membrane transporters that are electrogenic or whose activity is associated with changes in membrane potential, as previously described ([Jensen and BräunerOsborne, 2004]). In brief, cells are seeded at cell line-specific density in black clear-bottom poly-D-Lysine-coated 384-well plates (Greiner Bio-One) in DMEM high-glucose medium with 10% FBS, 1% P/S, and 2 mM UltraGlutamine I (25 µL/well). Furthermore, 24 h after seeding, the culture medium is removed, and the cells are loaded with 20 µL/well of 0.5 X FMP Blue Dye in assay buffer (modified Tyrode’s buffer, 130 mM NaCl, 5 mM KCl, 1 mM MgCl2, 2 mM CaCl2, 5 mM NaHCO3, and 20 mM HEPES pH 7.4). The plates are subsequently incubated for at least 30 min at room temperature in the dark. Then, 10 µL/well of test compounds and controls is added at defined concentrations (0.5% DMSO final conc.) in the FLIPR TETRA instrument (Molecular Devices), and emitted fluorescence is recorded using a λexc 510–545-nm/λem 565–625-nm filter. The dose–response curves for the 19 compounds were prepared starting from 3 µM (final top concentration), the half-log serial dilution factor. For data analysis, Genedata Screener 19.0 software was used.
The robust Z prime factor (RZ’ factor) was calculated with the following formula: RZ^′=1−3∗RSDMAX+RSDMIN/AbsMAX − MIN, where the RZ’ factor is based on the same formula as the Z′ factor ([Zhang et al., 1999]) but standard deviations and means are replaced by the robust standard deviations and medians, respectively. Curve fitting profiles were performed on each dose–response curve with the analyzer module of Genedata Screener 19.0 on % activity.

[2] = target: SLC1A2 (Homo sapiens, UniProt P43004); assay: Echo-MS assay, uptake of labeled glutamic acid in dox-induced HEK293–JumpIn–SLC1A2 (EAAT2) cells; set-up: expressed in transfected cells; host or cells: Jump In T-REx HEK293
SLC1A2, sequence (P43004 whole entry): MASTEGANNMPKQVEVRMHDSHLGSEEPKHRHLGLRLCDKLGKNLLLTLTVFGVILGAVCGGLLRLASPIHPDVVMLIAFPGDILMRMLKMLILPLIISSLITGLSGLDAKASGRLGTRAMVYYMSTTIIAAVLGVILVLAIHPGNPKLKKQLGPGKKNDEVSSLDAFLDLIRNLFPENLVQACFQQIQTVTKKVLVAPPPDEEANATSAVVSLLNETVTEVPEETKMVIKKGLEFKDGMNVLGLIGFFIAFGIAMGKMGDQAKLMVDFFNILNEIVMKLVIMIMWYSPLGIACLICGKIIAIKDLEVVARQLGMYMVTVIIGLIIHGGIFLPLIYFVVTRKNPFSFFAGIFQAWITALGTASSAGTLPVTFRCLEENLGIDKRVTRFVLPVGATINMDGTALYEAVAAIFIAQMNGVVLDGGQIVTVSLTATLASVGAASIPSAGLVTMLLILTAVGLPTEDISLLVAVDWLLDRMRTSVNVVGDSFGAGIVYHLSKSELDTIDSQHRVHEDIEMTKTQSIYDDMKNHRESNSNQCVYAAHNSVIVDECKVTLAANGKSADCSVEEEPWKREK
Description: Before the Echo-MS experiment, 15,000 cells per well were seeded into the wells of a 384-well plate (Beckman Coulter) and induced with […] doxycycline. […] The next day, compounds with stock solutions of 10 mM were first diluted to a final concentration of 90 µM before starting a 10-stage dilution series with a dilution factor of 1:3 with the CyBio FeliX pipetting robot. After the supernatant in the plate of the cell plate assay was discarded (BlueWasher, BlueCatBio), 10 µL of potassium/wash buffer including the compound dilution series was transferred by the pipetting robot (FeliX, CyBio), yielding a highest final concentration of 30 µM compound per well. After an incubation time of 15 min, 20 μL of L-Glutamic acid-13C5,15N with a concentration of 300 µM was added and incubated in an incubator at 37°C, 7.5% CO2, and 95% humidity. After 1 h incubation time, the wells were washed with 70 µL potassium buffer per well, and the supernatant was discarded before the precipitation process was started by adding 90 µL/well precipitation reagent (60% MeOH, 29% H2O, 11% formic acid) using a Multidrop Combi reagent dispenser (Thermo Fisher Scientific). After 30 min on the shaker at 500 rpm, the plates were centrifuged for 20 min at 2,000 rpm. Finally, 40 µL/well was transferred on qualified 384-well plates and then measured with Echo-MS/ADE-MS (Sciex). ADE-MS measurements were performed on an ADE-MS device (Sciex) operated with Sciex OS software (version 2.1.6.59781). A carrier solvent (60% acetonitrile, 39% H2O, and 1% formic acid) was used at a constant flow rate of 300 μL/min. For all samples, an ejection volume of 5 nL (2 droplets) and a repetition rate of 2.5 s/well were used. Triple Quad 6500+ was operated in a positive mode using the following settings: vaporizer temperature 450°C, spray voltage 5500 V, ion source gas 1: 90 psi, ion source gas 2: 70 psi, curtain gas 20 psi, CAD gas 9 psi, dwell time […], DP 35 V, EP 10 V, CE 14 V, and CXP 18 V. Data were processed with Sciex OS and further processed with Genedata Screener (version 19.0.9-Standard). Transporter inhibition by the compounds was tracked by analyzing the MS signal area values of uptaken labeled glutamic acid into the cell. The signal ratio of the reaction product to the respective standard was calculated to diminish variations ascribed to the sample preparation procedure or the MS readout. Average control values were calculated and set to 100% activity (high controls) and 0% activity (low controls), while the response values of compound-containing wells were normalized against the controls and expressed as the percentage of control (PoC).

[3] = target: T2, SLC22A3 (OCT3) (Homo sapiens, UniProt O75751); assay: Impedance-based MPP+ transport assay, HEK293–JumpIn–OCT3 cells
T2 construct: expressed in transfected cells; host or cells: Jump In T-REx HEK293
T2 sequence (O75751 1-556): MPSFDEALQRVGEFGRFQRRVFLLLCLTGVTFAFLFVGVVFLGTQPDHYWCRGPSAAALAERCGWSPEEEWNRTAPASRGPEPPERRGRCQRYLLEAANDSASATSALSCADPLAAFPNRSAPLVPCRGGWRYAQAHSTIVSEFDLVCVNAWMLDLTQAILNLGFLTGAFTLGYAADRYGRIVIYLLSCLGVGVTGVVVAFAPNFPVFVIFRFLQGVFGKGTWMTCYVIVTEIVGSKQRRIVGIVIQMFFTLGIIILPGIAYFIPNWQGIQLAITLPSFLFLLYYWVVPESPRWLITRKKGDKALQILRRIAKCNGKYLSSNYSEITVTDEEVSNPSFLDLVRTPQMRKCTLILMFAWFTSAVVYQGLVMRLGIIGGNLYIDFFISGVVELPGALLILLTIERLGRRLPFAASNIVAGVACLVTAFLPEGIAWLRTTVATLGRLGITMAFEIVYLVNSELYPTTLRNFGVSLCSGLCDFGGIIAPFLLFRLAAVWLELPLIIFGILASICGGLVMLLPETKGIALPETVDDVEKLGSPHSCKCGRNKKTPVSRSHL
Description: In short, HEK293–JumpIn–OCT3 (SL22A3) cells were seeded (60.000 cells/well) on an E-plate with 1 μg/mL doxycycline and grown for 22 h using the xCELLigence real-time cell analyzer (RTCA) SP or MP system. […] Changes in cellular morphology were monitored for a total of 2 h.

[4] = target: SLC6A2 (Homo sapiens, UniProt P23975); assay: Impedance-based TRACT assay, HEK293–JumpIn–NET (SLC6A2) cells; set-up: expressed in transfected cells; host or cells: Jump In T-REx HEK293
SLC6A2, sequence (P23975 whole entry): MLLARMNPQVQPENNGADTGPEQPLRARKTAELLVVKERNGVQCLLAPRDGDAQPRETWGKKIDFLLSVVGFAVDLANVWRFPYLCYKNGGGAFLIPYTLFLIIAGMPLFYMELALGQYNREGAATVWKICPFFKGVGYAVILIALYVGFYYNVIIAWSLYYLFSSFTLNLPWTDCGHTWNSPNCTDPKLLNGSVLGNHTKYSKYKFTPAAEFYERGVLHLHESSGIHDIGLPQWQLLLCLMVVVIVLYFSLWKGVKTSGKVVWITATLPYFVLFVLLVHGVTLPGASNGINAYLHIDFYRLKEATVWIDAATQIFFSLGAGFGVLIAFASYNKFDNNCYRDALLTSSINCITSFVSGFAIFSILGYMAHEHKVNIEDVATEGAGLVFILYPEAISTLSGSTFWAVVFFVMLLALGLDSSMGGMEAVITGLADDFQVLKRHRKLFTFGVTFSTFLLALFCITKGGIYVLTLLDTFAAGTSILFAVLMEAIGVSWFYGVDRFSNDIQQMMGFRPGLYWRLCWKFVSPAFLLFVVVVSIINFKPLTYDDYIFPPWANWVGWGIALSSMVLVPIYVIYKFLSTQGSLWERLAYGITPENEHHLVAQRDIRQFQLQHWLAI
Description: In brief, HEK293–JumpIn–NET (SLC6A2) or HEK293–JumpIn–CNT2 (SLC28A2) cells were seeded (60.000 cells/well) on an E-plate with 1 μg/mL doxycycline, and cell growth was monitored for 22 h using the xCELLigence real-time cell analyzer (RTCA) SP or MP system. […] Immediately after stimulation, changes in cellular response were monitored every 15 s for a total of 30 min.

[5] = Flipr Membrane Potential-Blue-Dye, read-out: pIC50 (act), SLC23A1 (converted)
[6] = target SLC1A2, assay EchoMS, read-out: pIC50 (act) (converted)
[7] = phenotypic, read-out: pIC50 (act), SLC22A3 (converted)
[8] = target SLC6A2, assay TRACT, read-out: pIC50 (act) (converted)
[9] = dox-induced HEK293–JumpIn–SLC1A2 cells, top conc. 30 µM, read-out: pIC50, SLC1A2, EchoMS (converted)

T1 sequence (Q9UHI7 whole entry): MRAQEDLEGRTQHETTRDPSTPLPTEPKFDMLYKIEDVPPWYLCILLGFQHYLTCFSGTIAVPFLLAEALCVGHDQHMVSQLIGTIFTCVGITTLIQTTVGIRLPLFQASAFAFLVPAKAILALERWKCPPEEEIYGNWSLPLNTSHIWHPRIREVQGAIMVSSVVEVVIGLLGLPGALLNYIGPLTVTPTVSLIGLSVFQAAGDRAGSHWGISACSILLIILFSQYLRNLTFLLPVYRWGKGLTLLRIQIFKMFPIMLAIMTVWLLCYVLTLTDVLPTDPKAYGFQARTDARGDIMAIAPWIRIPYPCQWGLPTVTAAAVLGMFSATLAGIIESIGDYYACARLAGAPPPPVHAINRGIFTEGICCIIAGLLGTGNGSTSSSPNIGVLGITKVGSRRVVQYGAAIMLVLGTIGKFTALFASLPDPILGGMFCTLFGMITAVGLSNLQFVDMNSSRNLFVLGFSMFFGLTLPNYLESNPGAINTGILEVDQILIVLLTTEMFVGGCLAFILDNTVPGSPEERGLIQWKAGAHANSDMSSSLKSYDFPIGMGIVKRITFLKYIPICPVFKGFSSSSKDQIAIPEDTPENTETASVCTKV

Cc1c(NC(=O)c2cc(C(N)=O)nc3cc(F)ccc23)c(C(F)(F)F)nn1Cc1ccc(C#N)cc1 [BAY-876]
IC50 [1, 5]: > 3.16 µM | IC50 [2, 6]: > 30 µM

CN1C2CCC1CC(OC(c1ccccc1)c1ccccc1)C2 (centres unmarked) [Benzotropine]
IC50 [1, 5]: > 3.16 µM | IC50 [3, 7]: > 10 µM | IC50 [2, 6]: > 30 µM

CCNC(=O)/C=C/c1cccc(Br)c1 [Cinromide]
IC50 [1, 5]: > 3.16 µM | IC50 [3, 7]: > 10 µM | IC50 [2, 6]: > 30 µM | IC50 [4, 8]: > 10 µM

O=S(=O)(O)c1cc(N=C=S)ccc1/C=C/c1ccc(N=C=S)cc1S(=O)(=O)O [DIDS]
IC50 [1, 5]: > 3.16 µM | IC50 [3, 7]: > 10 µM | IC50 [2, 6]: > 30 µM | IC50 [4, 8]: > 10 µM

COCCOc1cc(CC2CCN(CCc3ccc4c(c3)C(=O)CCO4)CC2)ccc1Br [DSP-1053]
IC50 [1, 5]: > 3.16 µM | IC50 [3, 7]: > 10 µM | IC50 [2, 6]: 11.7 µM | IC50 [4, 8]: > 10 µM

CNCCCN1c2ccccc2CCc2ccccc21 [Desipramine]
IC50 [1, 5]: > 3.16 µM | IC50 [3, 7]: > 10 µM | IC50 [2, 6]: > 30 µM

CC(C)[C@H]1CN[C@H](C(=O)O)[C@H]1CC(=O)O [Dihydrokainate]
IC50 [1, 5]: > 3.16 µM | IC50 [3, 7]: > 10 µM | IC50 [2, 6]: > 30 µM | IC50 [4, 8]: > 10 µM

N#Cc1ccc(Nc2cnccc2SCc2ccccc2C(=O)O)c2ccccc12 [KPH2f]
IC50 [1, 5]: > 3.16 µM | IC50 [3, 7]: > 10 µM | IC50 [2, 6]: > 30 µM | IC50 ([4]; approximate value stated in text, read-out: IC50, SLC6A2): ~1 µM

C=C(C)[C@H]1CN[C@H](C(=O)O)[C@H]1CC(=O)O [Kainic acid]
IC50 [1]: > 3.16 µM | IC50 [3]: > 10 µM | IC50 [2]: > 30 µM | IC50 [4]: > 10 µM

CCOC(=O)N1CCC(=C2c3ccc(Cl)cc3CCc3cccnc32)CC1 [Loratadine]
IC50 [1, 5]: > 3.16 µM | IC50 [3, 7]: > 10 µM | IC50 [2, 6]: > 30 µM

Nc1nc2ccc(OC(F)(F)F)cc2s1 [Riluzole]
IC50 [1, 5]: > 3.16 µM | IC50 [2, 6]: > 30 µM | IC50 [4, 8]: > 10 µM

N[C@H](C(=O)O)[C@H](OCc1cccc(NC(=O)c2ccc(C(F)(F)F)cc2)c1)C(=O)O [TFB-TBOA]
IC50 [1, 5]: > 3.16 µM | IC50 [3, 7]: > 10 µM | IC50 [2, 9]: 0.00794 µM | IC50 [2, 6]: 0.0088 µM | IC50 [4, 8]: > 10 µM

NC(C(=O)O)C(OCc1ccccc1)C(=O)O (stereo not drawn) [Threo-beta-benzyloxyaspartic acid, Threo-beta-Benzyloxyaspartic acid]
IC50 [1, 5]: > 3.16 µM | IC50 [3, 7]: > 10 µM | IC50 [2, 9]: 7.94 µM | IC50 [2, 6]: 8.6 µM | IC50 [4, 8]: > 10 µM

Cc1ccsc1C(=CCCN1CCC[C@@H](C(=O)O)C1)c1sccc1C [Tiagabine]
IC50 [1, 5]: > 3.16 µM | IC50 [3, 7]: > 10 µM | IC50 [2, 6]: > 30 µM | IC50 [4, 8]: > 10 µM

COc1ccc(C2C(C#N)=C(N)OC3=C2C(=O)CC(c2cccc4ccccc24)C3)cc1 (centres unmarked) [UCPH-101]
IC50 [1, 5]: > 3.16 µM | IC50 [3, 7]: > 10 µM | IC50 [2, 6]: > 30 µM | IC50 [4, 8]: > 10 µM

CC1C(C#N)=C(N)OC2=C1C(=O)CC(c1cccc3ccccc13)C2 (centres unmarked) [UCPH-102]
IC50 [1, 5]: > 3.16 µM | IC50 [3, 7]: > 10 µM | IC50 [2, 6]: > 30 µM | IC50 [4, 8]: > 10 µM

Fc1ccc(C(OCCN2CCN(CCCc3ccccc3)CC2)c2ccc(F)cc2)cc1 [Vanoxerine (GBR12909), Vanoxerine]
IC50 [1, 5]: > 3.16 µM | IC50 [3, 7]: > 10 µM | IC50 [2, 6]: 19.7 µM

N[C@@H](CC(=O)Nc1ccc(Oc2cc(F)c(F)cc2Br)cc1)C(=O)O [WAY-213613]
IC50 [1, 5]: > 3.16 µM | IC50 [3, 7]: > 10 µM | IC50 [2, 9]: 0.251 µM | IC50 [2, 6]: 0.26 µM | IC50 ([4]; dox-induced HEK293–JumpIn–SLC6A2 cells, 1 µM norepinephrine, read-out: pIC50, SLC6A2, TRACT (converted)): 1 µM
